Laboratory results published in paper PMC8850458, “The AUTOTAC chemical biology platform for targeted protein degradation via the autophagy-lysosome system” (Nature Communications, 2022).
Several values for one entry are separate records, joined by “and”; a condition that tells them apart may be missing. Equal values may be shown once. Read-outs that look alike come from different tables or passages of the source.

Experiments:
tauP301L = tauP301L (Homo sapiens, UniProt P10636, P618L); test: In vitro pulldown assay of biotinylated PBA; type: binding; conditions: tauP301L stably expressed in SH-SY5Y cells
Sequence of tauP301L (P10636 1-441 isoform P10636-8 P301L): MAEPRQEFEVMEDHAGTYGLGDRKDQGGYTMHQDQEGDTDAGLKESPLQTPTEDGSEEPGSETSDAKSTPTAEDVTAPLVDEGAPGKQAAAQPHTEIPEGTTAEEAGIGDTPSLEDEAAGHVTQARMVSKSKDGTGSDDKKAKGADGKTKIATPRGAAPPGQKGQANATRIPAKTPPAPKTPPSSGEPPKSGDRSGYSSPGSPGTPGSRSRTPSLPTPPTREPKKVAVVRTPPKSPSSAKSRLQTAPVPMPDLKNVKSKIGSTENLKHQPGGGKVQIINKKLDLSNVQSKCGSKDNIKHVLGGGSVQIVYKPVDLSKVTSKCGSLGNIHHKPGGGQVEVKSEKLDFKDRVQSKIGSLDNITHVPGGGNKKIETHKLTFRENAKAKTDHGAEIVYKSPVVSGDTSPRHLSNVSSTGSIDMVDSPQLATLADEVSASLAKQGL
Method: A set of synthetic 12-mer peptides corresponding to the N-terminal sequences of the V-BiP (V[19]-[…]-biotin) and V-RGS4 (V^2-[…]-biotin) was C-terminally biotin-conjugated. Alternatively, biotinylated versions of YOK-1304, YT-8-8, YTK-1105, YOK-2204, and PBA were synthesized. To cross-link the above peptides with resin beads, biotin-conjugated peptides, and small molecule were mixed with high-capacity streptavidin agarose resin (Thermo Fisher Scientific) at a ratio of 0.5 mg of peptide per 1 mL of settled resin and incubated on a rotator at 4 °C overnight. After washing five times with PBS, the peptide/small molecule-bead conjugates were diluted with PBS at a 1:1 ratio. To prepare protein extracts, cells were collected by centrifugation and lysed by freezing and thawing at least 10 times in hypotonic buffer [10 mM KCl, 1.5 mM MgCl2, and 10 mM HEPES (pH 7.9)] with a protease inhibitor mix (Sigma). After centrifugation at 15,000 rpm 4 °C for 15 min, proteins were quantified using a BCA protein assay kit (Thermo Fisher Scientific). Total protein (200 μg) diluted in 300 μL of binding buffer [0.05% Tween-20, 10% glycerol, 0.2 M KCl, and 20 mM HEPES (pH 7.9)] were mixed with 50 μL of peptide/small molecule-bead resin and incubated at 4 °C for 2 h on a rotator. The protein-bound beads were collected by centrifugation at 2400 × g for 3 min and washed five times with binding buffer. […]

[1] = WST-based cell viability assay in ACHN cells; conditions: human, ACHN cells; for viability at 0.01 µM / viability at 0.1 µM / viability at 1 µM / viability at 10 µM / viability at 50 µM / viability at 100 µM: ACHN
ACHN cells = test: WST-based cell viability assay in ACHN cells; conditions: for WST assay raw reading / WST assay viability relative to con = 100: ACHN, duplicates
[2] = tested on: AR^+LC3^+ autophagic membranes; test: ICC of AR-LC3 co-localization in LNCaP cells; type: cell-based; conditions: 2.5 µM, 24 h
Method: Cells were cultured on coverslips coated with poly-L-lysine (Sigma) to observe cellular localization of proteins. Using 4% paraformaldehyde in PBS (pH 7.4), the cells were fixed for 15 min at room temperature and washed three times for 5 min with PBS. After fixing, the cells were permeabilized with 0.5% Triton X-100 in PBS solution for 15 min and washed three times with PBS for 5 min. The cells were blocked containing 2% BSA in PBS solution for 1 h at room temperature. Subsequently, the cells were incubated with primary antibody diluted in 2% BSA/PBS solution overnight at 4 °C, followed by washing the cells three times for 10 min with PBS and incubated with Alexa Fluor-conjugated secondary antibody diluted in 2% BSA/PBS for 30 min at room temperature. Using a DAPI-containing mounting medium (Vector Laboratories), the coverslips were mounted on glass slides. Confocal images were taken by laser scanning confocal microscope 510 Meta (Zeiss) and analyzed by Zeiss LSM Image Browser (ver. 4.2.0.121). […] Quantification results are shown as mean ± S.D. or S.E.M. of three independent experiments

[3] = duplicates, read-out: WST assay viability relative to con = 100
[4] = read-out: WST assay viability, AVG %

With `O=C(O)CCCc1ccccc1` [4-PBA, 4-phenylbutyric acid] the “binding of tauP301L in pulldown” value (tauP301L) was “bound”.

`O[C@H](CNCCOCCOCCOc1ccc(-c2c(-c3ccccc3)nn3c(C(F)(F)F)cc(C(F)(F)F)nc23)cc1)COc1ccc(OCc2ccccc2)c(OCCCc2ccccc2)c1` [PHTPP-1304] showed a viability at 0.01 µM [1, 3] of 101%, a viability at 0.01 µM [1, 4] of 99.6% and a viability at 0.1 µM [1, 3] of 102%. It also gave a viability at 0.1 µM [1, 4] of 101%, a viability at 1 µM [1, 3] of 96.2% and a viability at 1 µM [1, 4] of 96.2%. For the same compound, the viability at 10 µM [1, 3] was 2.13%, the viability at 10 µM [1, 4] was 2.08% and the viability at 50 µM [1, 3] was 12.3%. The viability at 50 µM [1, 4] was 11.6%, the viability at 100 µM [1, 3] was 14.8% and the viability at 100 µM [1, 4] was 15.8%. For the same compound, the IC50 ([1]; WST-based viability assay, read-out: cytotoxicity IC50) was 3.3 µM, the “higher cytotoxicity than p62-binding ligand or TBL” value (ACHN cells; ACHN cells) was ~ 5 fold and the “WST assay raw reading” value (ACHN cells; 0.01uM) was 1.001 and 0.98. For the same compound, the “WST assay viability relative to con = 100” value (ACHN cells; 0.01uM) was 98.3465, the “WST assay raw reading” value (ACHN cells; 0.1uM) was 1.009 and 1.004 and the “WST assay viability relative to con = 100” value (ACHN cells; 0.1uM) was 101.115. The “WST assay raw reading” value (ACHN cells; 1uM) was 0.961 and 0.962, the “WST assay viability relative to con = 100” value (ACHN cells; 1uM) was 96.2699 and the “WST assay raw reading” value (ACHN cells; 10uM) was 0.146 and 0.145. The “WST assay viability relative to con = 100” value (ACHN cells; 10uM) was 2.019, the “WST assay raw reading” value (ACHN cells; 50uM) was 0.234 and 0.222 and the “WST assay viability relative to con = 100” value (ACHN cells; 50uM) was 10.9017. The “WST assay raw reading” value (ACHN cells; 100uM) was 0.256 and 0.273 and the “WST assay viability relative to con = 100” value (ACHN cells; 100uM) was 16.7852.

For `C=CC(C)(O)C(=O)N(C(=O)NCCOCCOCCNCC(O)COc1ccc(OCCc2ccccc2)c(OCCc2ccccc2)c1)c1cc(Cl)cc(Cl)c1` (stereo not drawn) [VinclozolinM2-2204], the “AR-LC3 colocalization, AVG of cells of 50” value [2] was 40, the “AR-LC3 colocalization, percentage AVG” value [2] was 80% and the “AR-LC3 colocalization, cells of 50 cells counted” value ([2]; single experiments, listed as Vinclo.-2204) was 41 and 36 and 43.
